In patent publication US11981921B2, “TIL expansion processes using specific cytokine combinations and/or AKTi treatment” (Iovance Biotherapeutics, Inc., priority 2022, dated 2024):
Where two headings read alike, the source gives them in different places.

Tests used:
TIL = assay: AKT inhibition during ex vivo TIL expansion (REP); assay type: cell-based
Experimental: Patient tumors from different indications were received, fragmented, and subjected to an expansion protocol for TIL manufacturing. Different doses (0.3 μM and 1 μM) of the pan-AKT inhibitor (AKTi) ipatasertib were added to the culture during ex vivo expansion. The expansion potential, as well as the phenotypic and functional characteristics of TIL were evaluated on the final TIL product.

TILs [1] = conditions: 1 or 2 uM given once or twice, with IL-2 1000 IU/ml + IL-21 10 ng/ml
From the text: (§1) The overarching goal of these experiments is to examine the growth conditions during the whole expansion process of TILs to augment their stem-like attributes while improving their functional and phenotypic characteristics.
Frozen pre-REP TILs were thawed and REPed under different conditions in 24-well GREX plates. […] Pre-REP TILs from 3 different indications were thawed and REPped in a G-REX 24 well plate. The following conditions were included in the REP protocol used in 24-well G-Rex plates: • 1) Feeder:TIL ratio 250:1 with 5 million feeders and 20,000 TILs per well, OKT3 at 30 ng/mL, • 2) On day 0 the REP is initiated with 3 mL of CM2 with cytokines and compounds, • 3) On day five 5 mL of CM4 media was added to each well, • 4) All cytokines and compounds are added twice on day 0 and day 5.

TILs [2] = system: TILs
Experimental: This Example describes the evaluation of the effects of IL-21 (10 ng/ml)+ AZD5363 in combination with increasing doses of IL-2 or IL-15 and evaluation of the overall impact on preventing effector differentiation, promoting more stem-like attributes and improving functionality of TILs during REP. The overarching goal of these experiments is to examine the growth conditions during the whole expansion process of TILs to augment their stem-like attributes while improving their functional and phenotypic characteristics.
Frozen pre-REP TILs were thawed and REPed under different conditions in 24-well GREX plates. Cytokines were given twice (Day 0 and Day 5 of pre-REP). Pre-REP TILs from 3 different indications were thawed and REPped in a G-REX 24 well plate. The following conditions were included in the REP protocol used in 24-well G-Rex plates: • 1) Feeder:TIL ratio 250:1 with 5 million feeders and 20,000 TILs per well, OKT3 at 30 ng/mL, • 2) On day 0 the REP is initiated with 3 mL of CM2 with cytokines and compounds, • 3) On day five 5 mL of CM4 media was added to each well, • 4) All cytokines and compounds are added twice on day 0 and day 5. The following conditions were tested: IL-2 3000 IU/mL, IL-2 2000 IU/mL, IL-2 1000 IU/mL, IL-2 3000 IU/mL+IL-21 10 ng/ml, IL-2 2000 IU/mL+IL-21 10 ng/ml, IL-2 1000 IU/mL+IL-21 10 ng/ml, IL-2 3000 IU/mL+IL-21 10 ng/ml+2 uM AZD5363 (added once), IL-2 2000 IU/mL+IL-21 10 ng/ml+2 uM AZD5363 (added once), IL-2 1000 IU/mL+IL-21 10 ng/ml+2 uM AZD5363 (added once), and IL-15 10 ng/ml+IL-21 10 ng/ml+1 uM AZD5363 (added twice).

TILs [3] = system: TILs; remark: listed apart in the source
From the text: as §1
Pre-REP TILs from 3 different indications were thawed and REPped in a G-REX 24 well plate. Cytokines were given twice (Day 0 and Day 5 of pre-REP). The following conditions were included in the REP protocol used in 24-well G-Rex plates: • 1) Feeder:TIL ratio 250:1 with 5 million feeders and 20,000 TILs per well, OKT3 at 30 ng/mL, • 2) On day 0 the REP is initiated with 3 mL of CM2 with cytokines and compounds, • 3) On day five 5 mL of CM4 media was added to each well, • 4) All cytokines and compounds are added twice on day 0 and day 5.

TILs [4] = assay: Evaluation of I-TIL process conditions (pre-REP and REP, 18 tumors); assay type: cell-based
Experimental: Tumors (N=18) were received and processed for both pre-REP and REP expansion to test and select a preferred set of conditions, nominated as the final I-TIL (invigorated TIL) conditions.
Cytokines were added twice on Day 0 and Day 5 of pre-REP.
Pre-REP cells were then frozen until all pre-REP samples were generated in order to initiate the REP together at the same time. Frozen pre-REP TILs were thawed and rested overnight in their corresponding conditions followed by REP in 24-well G-Rex plates. […] Cytokines were added twice on Day 0 and Day 5 and AZD5363 was only added once on Day 0 of REP.

KILR® THP-1 cells = assay: TIL cytotoxicity in coculture with KILR THP-1 cells; assay type: cell-based; conditions: 24 hrs coculture, 10:1, Invigo-T process
Experimental: TILs were then tested for cytotoxicity in an allogeneic environment after coculture for 24 hrs with KILR® THP-1 cells at a 10:1 effector-to-target cell. […] TILs were next stimulated every 3 days with TransAct followed by coculture for 24 hrs with KILR® THP-1 cells before being assessed for cytotoxicity and IFNg expression (as measured byflow cytometry staining).

[5] = AKTi treatment during ex vivo expansion
[6] = with IL-15 10 ng/ml + IL-21 10 ng/ml

## CC(C)NC[C@@H](C(=O)N1CCN(c2ncnc3c2[C@H](C)C[C@H]3O)CC1)c1ccc(Cl)cc1 [AKTi, ipatasertib]
TIL; 1 μM dose, relative to control
  expansion and viability of TIL: equivalent
TIL; 1 μM dose, relative to control, present even after re-stimulation
  population of less differentiated CD39−CD69− cells: doubled
TIL; [5]
  cytotoxicity of TIL: increased cytotoxicity
  frequency of IFNγ+TNFα+CD8+ T cells: increase
TIL; CD39−CD69− cells after re-stimulation
  expression of CD38 and transcription factors T-bet and Tox: reduced expression

## AZD5363
TILs [1]
  phenotypic changes on TILs (inhibitory receptors, activation, stem-like qualities, functionality): further beneficial phenotypic changes
TILs [2]; 2 uM given once, with IL-2 1000 IU/ml + IL-21 10 ng/ml
  effector differentiation, stem-like phenotype, functional responses, inhibitory receptor expression: induces many of the desired changes
TILs [2]; IL-15 combination
  activation state of TILs: further reduced
TILs [2]; [6]
  effects on cytokine production, in particular IL-2: quite significant
TILs [2]; with IL-15 10 ng/ml + IL-21 10 ng/ml, vs IL-2 combination
  same effects with IL-15 instead of IL-2: comparable
TILs [3]; [6]
  effector differentiation, stem-like phenotype, functional responses, inhibitory receptor expression: induces many of the desired changes
TILs [3]; with IL-15 + IL-21, vs IL-2 1000 IU/ml and IL-21 10 ng/ml
  effects on increasing IFNg, TNFa and IL-2: more pronounced
TILs [4]; 2 uM once on Day 0 of REP, with IL-15 10 ng/ml + IL-21 10 ng/ml
  effector differentiation, stem-like phenotype, functional responses, inhibitory receptor expression: induces many of the desired changes
TILs [4]; with IL-15 + IL-21, vs IL-2 1000 IU/ml + IL-21 10 ng/ml + AZD5363
  effects on increasing IFNg, TNFa and IL-2: more pronounced
KILR® THP-1 cells
  cytotoxicity with or without AZD5363: no significant difference

## IL-15: cytokine used at 10 ng/ml with IL-21 during REP
TILs [4]; IL-15 conditions
  yield and viability of the process: significantly augmented
